According to ChEMBL document CHEMBL5712086, “Spatially clustered loci with multiple enhancers are frequent targets of HIV-1 integration” (Nat Commun, 2019):
Activity calls are given as the source filed them. The calls are words filed in the database; no cut-off is given here.

Legend:
[1] = target: T1, Bromodomain and extra-terminal motif (BET) (Homo sapiens) (UniProt P25440+O60885+Q58F21+Q15059); settings: CD4+ T cell, dose 500.0 nM, time 20.0 hrs
CD4+ T cell [2] = assay: Effect on spatial localization of HIV-1 in human CD+ T cells at 500 nM incubated for 6 hrs followed by infection for 72 hrs by 3D immuno-DNA FISH assay; type: functional, cell-based; settings: Human immunodeficiency virus 1, time 78.0 hrs
CD4+ T cell [3] = assay: Effect on spatial localization of recurrent integration genes of HIV-1 in human CD+ T cells at 500 nM incubated for 6 hrs followed by infection for 72 hrs by 3D immuno-DNA FISH assay; type: functional, cell-based; settings: Human immunodeficiency virus 1, time 78.0 hrs
CD4+ T cell [4] = assay: Upregulation of protein-coding genes proximal to super enhancers in activated human CD+ T cells at 500 nM incubated for 6 hrs by transcriptional profiling relative to coding genes without SE; type: functional, cell-based
CD4+ T cell [5] = assay: Down regulation of protein-coding genes proximal to super enhancers in activated human CD+ T cells at 500 nM incubated for 6 hrs by transcriptional profiling relative to coding genes without SE; type: functional, cell-based
CD4+ T cell [6] = assay: Effect on HIV-1 insertion biases in human CD+ T cells assessed as insertion rate per chromosome at 500 nM incubated for 6 hrs; type: functional, cell-based; settings: Human immunodeficiency virus 1
[7] = target: T1, Bromodomain and extra-terminal motif (BET) (Homo sapiens); settings: CD4+ T cell, dose 500.0 nM, time 20.0 hrs; remark: listed apart in the source

For `Cc1sc2c(c1C)C(c1ccc(Cl)cc1)=N[C@@H](CC(=O)OC(C)(C)C)c1nnc(C)n1-2`, the inhibition [1] was “Active”, the Activity (CD4+ T cell [2]) was “inactive” and the Activity (CD4+ T cell [3]) was “inactive”. The Activity (CD4+ T cell [4]) was “Active”, the Activity (CD4+ T cell [5]) was “Active” and the Activity (CD4+ T cell [6]) was “inactive”. The inhibition [7] was “Active”.
